Assay results reported in patent US6911454B1, “Method for potentiating primary drugs in treating multidrug resistant disease” (priority 1989, dated 2005).
Entries after “also recorded” stand apart in the source; their conditions may differ.

Assays:
[1] = L.D.50 by single escalating injections; assay type: in vivo, mice
Method: In addition, the effects of d-Tetrandrine-(S) plus doxorubicin in Nu/Nu athymic mice inoculated with DX20 sarcoma cells, 76×resistant when compared to the parent MES-SA cells were examined. Four cohorts of nude animals bearing the DX20 tumor were treated in groups of 5 (control, doxorubicin, d-tetrandrine, and doxorubicin+d-tetrandrine). […] (See FIG. 6). Tumor size was calculated using the formula (4 Pi/3) X*Y*2Z. […] An L.D.50 dose of 260 mg/kg was also calculated by administering single escalating injections of the compound. Tables I & II and FIG. 6 give the actual measurements.

[2] = test system: resistant (K562-R7) cancel cells; experiment: doxorubicin fluorescence test by flow cytometry; assay type: cell-based; conditions: FIG. 12, resistant cells pre-incubated with tetrandrine
[3] = test system: DX20; conditions: FIG. 5; colony formation, 7 days; addition of d-tetrandrine
Method: The second assay model used, colony formation assay, consisted of 1000-1500 cells, again depending on the proliferation rate of the cell line being added to each well of 24 well microtiter plates in 500 microliters of culture media. The cells were allowed to attach overnight. […] The plates were incubated for a total of 7 days before being fixed in 2.5% glutaraldehyde and stained with crystal violet. Quantitations of colony growth were assessed using an ultrasensitive imaging device (LCVS-5, I.P.S., Pittsburgh, Pa.). A colony is defined as any cluster of 30 or more cells. Percent inhibition was directly measured against control plates containing no drugs.

[4] = test system: multidrug resistant human cancer (DX20); assay type: in vivo, mice; conditions: d-tetrandrine 0.5, 1, 1.5 mg injections; doxorubicin 5.5 mg per kg; about one month
Method: It is only important that they be administered sufficiently close together that the cancer is exposed to both simultaneously. For example, nude mice infected with a multidrug resistant human cancer were given 0.5 mg, 1 mg and 1.5 mg respectively in three separate injections, 72 hours apart.

[5] = test system: breast cancer; experiment: treatment of a person with breast cancer; assay type: in vivo, human; conditions: d-tetrandrine 180 mg per day orally from day 95, with trichemo (5-fluorouracil, cyclophosphamide, doxorubicin)
Method: A person with breast cancer was given d-tetrandrine orally, three times a day for a total of 180 mg per day, over a two week period. Five days after the beginning of that treatment, they were given a trichemo soup of 5-fluorouracil, cyclophosphamide and doxorubicin. Eight days later, near the end of the d-tetrandrine dosage, they were given 5-fluorouracil. This regime was followed two different times approximately two weeks apart during the course of retreatment.
A person with very serious breast cancer has also been successfully treated in accordance with the method of the present invention. The tables below describe their treatment regime, which involved a trichemo soup of 5-fluorouracil, cyclophosphamide and doxorubicin, administered intermittently with 5-fluorouracil alone. No d-tetrandrine was administered until day 95.
FIG. 11 is a graphical log of […] tumor area in cubic centimeters charted against days elapsed. The tumor initially responded to the trichemo treatment alone, reducing in size until day 50.
The patient was diagnosed via biopsy on Mar. 19, 1991 as having an infiltrated carcinoma (poorly differentiated) on the right breast. […] They were treated with a combination of 5-fluorouracil, cyclophosphamide and doxorubicin according to the schedule shown below. […] Notice the increase in tumor size between days 50 and 100 indicating the formation of drug resistance.

[6] = d-Tetrandrine-(S) detected at the tumor; assay type: in vivo, mice; conditions: 3 intraperitoneal injections over 120 hours, 150 mg/kg total
[7] = test system: DX20 cancer cells; experiment: modified MTT assay, drug sensitivity of DX20 cells; assay type: cell-based, human
Text: The MES-SA/DX20 cell line was established according to the development methods of Sikic et al., Resistance to Antineoplastic Drugs, Chap. 3, CRC Press, Ed. David Kessel, pp. 37-47 (1989). In vitro drug sensitivity testing consisted of two assay models, the modified MTT assay (Mossman, J. Immunolog. Methods, Vol. 65, pp. 55-63, 1983) and the colonogenic assay. In addition to this, the combinations were investigated in vivo in nude mice bearing the DX20 cell line. The MTT assay was chosen because of its practical advantages in large-scale screening. The assay involved cellular conversion of tetrazolium salt to a colored formazan serving as a measurement of cell viability.
In a given experiment, culture media, 50 microliters, containing 8,000-25,000 cells, depending on the proliferation rate of the cell line, was pipetted into each well of several 96-well microtiter plates. The cells were allowed to attach overnight. […] The cytotoxic drug, also at a concentration below that previously established as an IC50, was then added at decreasing concentrations by 25% to several half plate sections. The cells were allowed to grown for 72 hours. 100 microliters of media was then removed and 25 microliters of 5 mg/ml MTT (Sigma, St. Louis, Mo.) in phosphate buffered saline was added to each well. The plates were kept in an incubator at 37° C. and 5% CO2. After 2-3 hours of incubation, the extraction buffer containing 20% w/v SDS and 50% DMF was added and the plates again incubated overnight. The plates were read at a test wavelength of 570 nm on a multiwell spectrophotometer (Model MR 700, Dynatech Laboratories, Alexandria, Va.). Each drug combination was tested in triplicate. Percent survival was defined as percent of optical density (OD) of the drug-treated wells to that of the control detected by the spectrophotometer.
The in vitro drug sensitivity testing of ethyl fangchinoline consisted of two assay models, the modified MTT (Mossman 1983) and a colony formation assay in which a direct measure was taken by quantitation of colony formation. The MTT assay was chosen because of its practical advantages in large scale screening. The assay involves cellular conversion of tetrozolium salt to a colored formazan serving as a measurement of cell viability.
Two human cell lines were chosen as the primary targets of study in reversing multiple-drug resistance. The MES-SA, a sarcoma, and its resistant subline, DX-20, were kindly donated by Dr. B. Sikic (U of Stanford, Stanford, Calif.). The A2780, an ovarian cancer, and its resistant subline, A2780-ad10, were provided by Roswell Park Memorial Inst. (Buffalo, N.Y.).
Culture media, 50 ul containing 8,000 to 25,000 cells depending on the proliferation rate of the line, was pipetted into each of 96 wells in a flat bottom tissue plate. The cells were incubated overnight to allow adherence. One hundred ul of ethyl fangchinoline, at a concentration below that previously established as an independent IC50, was added to each experimental well. […] The plates were then incubated for 72 hours before MTT was added and the analysis of O.D. values interpreted by a multi-plate scanner (MR700, Dynatech).

COc1ccc2cc1Oc1ccc(cc1)C[C@H]1c3cc(c(OC)cc3CCN1C)Oc1c(OC)c(OC)cc3c1[C@H](C2)N(C)CC3 [TT, tetrandrine]
L.D.50 dose [1]: 260 mg/kg
doxorubicin concentration (fluorescence) in resistant versus sensitive cells ([2]; listed as d-tetrandrine): greater in the resistant cancer than it is in the sensitive cancer
doxorubicin concentration (fluorescence) in resistant versus sensitive cells ([2]; listed as tetrandrine (TT)): contains more doxorubicin than the sensitive strain
doxorubicin-resistance reversal [3]: either partially or completely reversed
tumor outcome [4]: very large tumors which were unabated
tumor outcome in patient [5]: substantially eliminated; also recorded: continued to diminish to nonexistence by day 175
d-Tetrandrine-(S) detected at the tumor [6]: 54 micrograms/gram tissue
IC50 ([7]; DX20 cells, single agent, read-out: IC50 alone): 4.3 µM
doxorubicin resistance reversal ([7]; FIG. 1, DX20 versus parent MES-SA, addition of d-tetrandrine): either partially or completely reversed
vincristine-resistance reversal ([7]; FIG. 2, DX20 versus parent MES-SA, addition of d-tetrandrine): either partially or completely reversed
vinblastine resistance reversal ([7]; FIG. 3, DX20 versus parent MES-SA, addition of d-tetrandrine): either partially or completely reversed
sensitivity of DX20 to doxorubicin versus parent (MES) cell line ([7]; d-tetrandrine 1.0×10^−6 M combined with doxorubicin 1.2×10^−8 M): becomes more sensitive to doxorubicin than the parent (MES) cell line
